Assay results reported in patent US11691992B2 (Anacor Pharmaceuticals, Inc., priority 2017, dated 2023).

Legend:
Type in all cases: cell-based
[1] = tested on: IL3000 T. congolense (drug sensitive) strain; assay: In vitro Alamar Blue 72 h drug sensitivity assay for T. congolense; details: Trypanosoma congolense; bloodstream form, 69 h + 3 h resazurin, 34° C.; classes A-C; read-out: IC50: I Org. Growth T. congolense IL-3000, 3 d
Description: Example 106. In Vitro Alamar Blue 72 h Drug Sensitivity Assay for T. congolense
Compounds were tested in vitro for chemotherapeutic potency against the IL3000 T. congolense (drug sensitive) strain, using the Alamar Blue assay with several modifications. Test compounds were prepared as 10 mg/mL DMSO stocks for each assay run. Compounds were assayed in at least three separate, independent test runs and an 11-point dilution curve was used to determine the IC50 values. Bloodstream form trypanosomes were supported in HMI media containing 20% bovine serum and were incubated with test compounds for 69 h at 34° C. in a humidified atmosphere containing 5% CO2. Thereafter, 10 μL of Resazurin dye (12.5 mg in 100 mL of phosphate buffered saline, Sigma-Aldrich, Buchs, Switzerland) were added for an additional 3 h. Plates were then read using a fluorescent plate reader (Spectramax, Gemini XS, Bucher Biotec, Basel, Switzerland) using an excitation wavelength of 536 nm and an emission wavelength of 588 nm. Data points were averaged to generate sigmoidal dose-response curves and IC50 values were determined using Softmax Pro 5.2 software.

[2] = tested on: TdTomato-modified T. cruzi (CL strain) in Vero cells; assay: In vitro IC50 measurement of T. cruzi amastigote killing using TdTomato-modified T. cruzi (CL strain); details: Trypanosoma cruzi, 72 h, fluorescence, read-out: IC50: I Org. amastigote Growth T. cruzi CL TdTomato, 3 d
Description: Example 112. In Vitro IC50 Measurement of T. cruzi Amastigote Killing Using TdTomato-Modified T. cruzi (CL Strain)
The T. cruzi parasites used in this assay were genetically modified to express Td Tomato fluorescent protein. Vero cells (African green monkey kidney epithelial cells) were harvested from continuous cultures using trypsin and added to the inner 60 wells of 96-well Greiner Bio One plates (plate catalog #655090) at 200 ul/well of […]. Cells were allowed to adhere for 1 h before infection with T. cruzi. T. cruzi for infection were harvested from previously-infected Vero cells, washed, pelleted and resuspended at 5×10^6/mL. 50 uL of parasites were added to each well containing Vero cells. Compounds were prepared from 5 mM stock concentrations in DMSO to final concentrations in wells ranging from 5 uM to 5 nM. Wells were provided for negative controls, lacking compounds. Plates were placed into a 37° C. incubator for 20 min, then a “Day 0” reading was taken on a Synergy H4 plate reader to record initial fluorescence levels, at 544 (excitation) and 612 nm (emission). 96-well plates were placed in Tupperware containers with wet paper towels and incubated at 37° C. incubator for 72 h. After 72 h plates were reread (Day 3 reading) and data analyzed using Excel and/or Graphpad software. Day 0 fluorescence was subtracted from Day 3 to remove input parasite fluorescence. Growth curves are generated and 50% and 90% inhibitory concentrations are determined by nonlinear regression analysis.

[3] = tested on: luciferase-expressing L. major parasites developing intracellularly inside RAW 264.7 macrophages; assay: Leishmania major intracellular amastigote assay in RAW 264.7 macrophages (luciferase); details: RAW264.7, 96 hours, read-out: IC50: I Org. intracellular amastigote Growth L. major, 4 d
From the text: Example 107. Assay for Leishmania major Intracellular Amastigote Assay in RAW 264.7 Macrophages
The intracellular amastigote assay is a microtiter plate drug sensitivity assay that uses the activity of luciferase as a measure of proliferation of luciferase-expressing L. major parasites developing intracellularly inside RAW 264.7 macrophages in the presence of antileishmanial drugs or experimental compounds. (Buckner, F. S., and A. J. Wilson. Am J Prop Med Hyg, 2005, 72(5): 600-605.) As the activity of luciferase and its associated luminescence after addition of the substrate, luciferin, is relative to parasite growth, a test compound that inhibits the growth of the parasite will result in a lower luminescence. The luciferase-expressing L. major parasite used in this assay is genetically modified by adding the luciferase coding region to the pLEXSY-hyg2 vector (Jena Biosciences). The luciferase expression construct was created by digesting the luciferase coding region (1.66 kbp) of pGL3-Basic (Promega) by using two restriction enzymes, NcoI/EagI, followed by electrophoretic separation of the luciferase coding region on a 1% agarose gel. The luciferase coding region was then ligated into pLEXSY-hyg2 vector (Jena Biosciences) which had previously been digested with NcoI/NotI. The vector was linearized with SwaI and subsequently gel purified prior to transfection into L. major parasites. Transfections were carried out by electroporation at 480V, 13Ω, and 500 μF (0.4 mL of 1×10^8 parasites/mL, and 0.1 mL of 10 μg DNA). Selection for transfectants was then carried out using hygromycin B (100 μg/mL). RAW 264.7 macrophages were cultured in DMEM media (ATCC Cat #30-2002) supplemented with heat-inactivated 10% FBS (Invitrogen Cat #10438-034). To begin the assay, macrophages were harvested from culture by removing all spent media, adding in 10 mL fresh media, scraping cells, and counted using Trypan Blue. The cells were resuspended in DMEM/10% HIFBS media at 2.0×10^5 cells/mL, and then dispensed in a volume of 50 μL to yield a final concentration of 10,000 macrophages/well in 384 well tissue-culture treated sterile white plates (Nunc Cat #12-565-343) using a Tecan EVO Freedom robotics system. The plates were then incubated at 37° C. overnight in 5% CO2 atmosphere for 24 hours. After overnight incubation, the media was removed from each well using the Tecan EVO Freedom robot, and L. major promastigotes were added to each well and allowed to invade the RAW macrophages. Promastigotes were cultured in Schneider's medium (Invitrogen Cat #11720-067) supplemented with 20% heat inactivated FBS. Metacyclic stage promastigotes provide the best invasion for this assay, and cultures should be grown to increase the percentage of metacyclic promastigotes for best results. Promastigotes were harvested from culture, counted, suspended at 2×10^6 promastigotes/mL in DMEM/HIFBS media, and 100,000 promastigotes were dispensed per well in a volume of 50 μL. After overnight incubation, the media was removed from each well using the Tecan Freedom EVO robot, and each well was subsequently washed three times with 40 μF of fresh DMEM/HIFBS medium to remove all extracellular promastigotes. After the third wash, 69.2 μF of DMEM/HIFBS medium was added to each well using the Tecan EVO Freedom robot. Drug plates were prepared with the Tecan EVO Freedom using sterile 96 well plates containing twelve duplicate two-fold serial dilutions of each test compound suspended in DMSO. 7.8 μF of diluted test compound was added to the 69.2 μF of media present in each well providing a 10 fold final dilution of compound. The final concentration range tested was 0.5 to 10,000 ng/ml for all assays. The plates were next incubated at 37° C. and 5% CO2 for 96 hours. After 96 hours of incubation, 7.5 μF of a luciferin solution (Caliper Fife Science) diluted to 150 μg/mF was added to each well, and the plates were incubated for 30 minutes at 37° C., in the dark. […]

Structure (SMILES)	IC50 [1] [nM]	IC50 [2] [nM]	IC50 [3] [nM]
CC(C)c1c(C(=O)Nc2ccc3c(c2)B(O)OC3)nnn1-c1ccccn1 [Example 51, N-(1-hydroxy-1,3-dihydrobenzo[c][1,2]oxaborol-6-yl)-5-isopropyl-1-(pyridin-2-yl)-1H-1,2,3-triazole-4-carboxamide]	100 to 300	600 to 1000	
O=C(Nc1ccc2c(c1)B(O)OC2)c1nnn(CC2CCCC2)c1C(F)(F)F [Example 35, 1-(cyclopentylmethyl)-N-(1-hydroxy-1,3-dihydrobenzo[c][1,2]oxaborol-6-yl)-5-(trifluoromethyl)-1H-1,2,3-triazole-4-carboxamide]			≤ 1000
CCCc1c(C(=O)Nc2ccc3c(c2)B(O)OC3)nnn1-c1ccccn1 [Example 50, N-(1-hydroxy-1,3-dihydrobenzo[c][1,2]oxaborol-6-yl)-5-propyl-1-(pyridin-2-yl)-1H-1,2,3-triazole-4-carboxamide]	100 to 300	< 600	
O=C(Nc1ccc2c(c1)B(O)OC2)c1nnn(CC2CC2)c1C(F)(F)F [Example 34, 1-(cyclopropylmethyl)-N-(1-hydroxy-1,3-dihydrobenzo[c][1,2]oxaborol-6-yl)-5-(trifluoromethyl)-1H-1,2,3-triazole-4-carboxamide]			≤ 1000
Cc1c(C(=O)Nc2ccc3c(c2)B(O)OC3)nnn1C1CC1 [Example 38, 1-cyclopropyl-N-(1-hydroxy-1,3-dihydrobenzo[c][1,2]oxaborol-6-yl)-5-methyl-1H-1,2,3-triazole-4-carboxamide]			≤ 1000
Cc1c(C(=O)Nc2ccc3c(c2)B(O)OC3)nnn1CC(F)(F)F [Example 39, N-(1-hydroxy-1,3-dihydrobenzo[c][1,2]oxaborol-6-yl)-5-methyl-1-(2,2,2-trifluoroethyl)-1H-1,2,3-triazole-4-carboxamide]			≤ 1000
Cc1c(C(=O)Nc2ccc3c(c2)B(O)OC3)nnn1CC1CC1 [Example 43, 1-(cyclopropylmethyl)-N-(1-hydroxy-1,3-dihydrobenzo[c][1,2]oxaborol-6-yl)-5-methyl-1H-1,2,3-triazole-4-carboxamide]			10000 to 50000
Cc1c(C(=O)Nc2ccc3c(c2)B(O)OC3)nnn1C(C)C [Example 37, N-(1-hydroxy-1,3-dihydrobenzo[c][1,2]oxaborol-6-yl)-1-isopropyl-5-methyl-1H-1,2,3-triazole-4-carboxamide]			≤ 1000
O=C(Nc1ccc2c(c1)B(O)OC2)c1nnn(C2CCC2)c1C(F)(F)F [Example 45, 1-cyclobutyl-N-(1-hydroxy-1,3-dihydrobenzo[c][1,2]oxaborol-6-yl)-5-(trifluoromethyl)-1H-1,2,3-triazole-4-carboxamide]			10000 to 50000
CCCn1nnc(C(=O)Nc2ccc3c(c2)B(O)OC3)c1C [Example 36, N-(1-hydroxy-1,3-dihydrobenzo[c][1,2]oxaborol-6-yl)-5-methyl-1-propyl-1H-1,2,3-triazole-4-carboxamide]			≤ 1000
Cc1c(C(=O)Nc2ccc3c(c2)B(O)OC3)nnn1CC1CCCC1 [Example 44, 1-(cyclopentylmethyl)-N-(1-hydroxy-1,3-dihydrobenzo[c][1,2]oxaborol-6-yl)-5-methyl-1H-1,2,3-triazole-4-carboxamide]			10000 to 50000
CCCn1nnc(C(=O)Nc2ccc3c(c2)B(O)OC3)c1C(F)(F)F [Example 31, N-(1-hydroxy-1,3-dihydrobenzo[c][1,2]oxaborol-6-yl)-1-propyl-5-(trifluoromethyl)-1H-1,2,3-triazole-4-carboxamide]			≤ 1000
Cc1c(C(=O)Nc2ccc3c(c2)B(O)OC3)nnn1C1CCCC1 [Example 41, 1-cyclopentyl-N-(1-hydroxy-1,3-dihydrobenzo[c][1,2]oxaborol-6-yl)-5-methyl-1H-1,2,3-triazole-4-carboxamide]			≤ 1000
CC(C)n1nnc(C(=O)Nc2ccc3c(c2)B(O)OC3)c1C(F)(F)F [Example 32, N-(1-hydroxy-1,3-dihydrobenzo[c][1,2]oxaborol-6-yl)-1-isopropyl-5-(trifluoromethyl)-1H-1,2,3-triazole-4-carboxamide]			≤ 1000
O=C(Nc1ccc2c(c1)B(O)OC2)c1nnn(C2CCCC2)c1C(F)(F)F [Example 30, 1-cyclopentyl-N-(1-hydroxy-1,3-dihydrobenzo[c][1,2]oxaborol-6-yl)-5-(trifluoromethyl)-1H-1,2,3-triazole-4-carboxamide]			≤ 1000
COCCn1nnc(C(=O)Nc2ccc3c(c2)B(O)OC3)c1C(F)(F)F [Example 33, N-(1-hydroxy-1,3-dihydrobenzo[c][1,2]oxaborol-6-yl)-1-(2-methoxyethyl)-5-(trifluoromethyl)-1H-1,2,3-triazole-4-carboxamide]			≤ 1000
CCn1nnc(C(=O)Nc2ccc3c(c2)B(O)OC3)c1C(F)(F)F [Example 28, 1-ethyl-N-(1-hydroxy-1,3-dihydrobenzo[c][1,2]oxaborol-6-yl)-5-(trifluoromethyl)-1H-1,2,3-triazole-4-carboxamide]			≤ 1000
O=C(Nc1ccc2c(c1)B(O)OC2)c1nnn(C2CC2)c1C(F)(F)F [Example 29, 1-cyclopropyl-N-(1-hydroxy-1,3-dihydrobenzo[c][1,2]oxaborol-6-yl)-5-(trifluoromethyl)-1H-1,2,3-triazole-4-carboxamide]			≤ 1000
COCCn1nnc(C(=O)Nc2ccc3c(c2)B(O)OC3)c1C [Example 40, N-(1-hydroxy-1,3-dihydrobenzo[c][1,2]oxaborol-6-yl)-1-(2-methoxyethyl)-5-methyl-1H-1,2,3-triazole-4-carboxamide]			≤ 1000
